PubChem BioAssay (NCI)
Where “and” joins values, the source holds several entries; their conditions need not be identical. Identical values can stand only once.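 All cell lines were grown in 96-well plates and treated with compound for 48 hours. GI50 = concentration required for 50% inhibition of growth. Definition used: TGI = concentration required for complete inhibition of growth.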

Columns and labels:
Assay in all cases: NCI anticancer screen, dose series, 48 h
[1] = tested on: OVCAR-3 ovarian
[2] = tested on: UACC-257 melanoma
[3] = tested on: HCT-15 colon
[4] = tested on: UACC-62 melanoma
[5] = tested on: SK-OV-3 ovarian
[6] = tested on: U251 CNS
[7] = tested on: HT29 colon
[8] = tested on: K-562 leukemia
[9] = tested on: SK-MEL-5 melanoma
[10] = tested on: HS 578T breast

C(=C\c1ccncc1)/c1ccncc1
GI50 [1]: > 100 µM
TGI [1]: > 100 µM
GI50 [2]: > 100 µM
TGI [2]: > 100 µM
GI50 [3]: > 100 µM
TGI [3]: > 100 µM
GI50 [4]: > 100 µM
TGI [4]: > 100 µM
GI50 [5]: > 100 µM
TGI [5]: > 100 µM
GI50 [6]: > 100 µM
TGI [6]: > 100 µM
GI50 [7]: > 100 µM
TGI [7]: > 100 µM
GI50 [8]: > 100 µM
TGI [8]: > 100 µM
GI50 [9]: > 100 µM
TGI [9]: > 100 µM

CN(C)C(=S)/N=c1\ssc(=S)n1Cc1ccco1
TGI [1]: 9.58 µM
TGI [2]: > 100 µM
TGI [3]: > 100 µM
TGI [4]: > 59.3 µM
TGI [5]: > 100 µM
TGI [6]: > 47.4 µM
TGI [7]: > 24.4 µM
TGI [8]: > 55.7 µM
TGI [9]: 38.2 µM

C=C(C)C1CCC2=CC(CC3(C)OC3C3=CC(C(=O)OC)=C(C1)O3)OC2=O (stereo unspecified)
TGI [1]: > 100 µM
TGI [2]: > 100 µM
TGI [3]: > 100 µM
TGI [6]: > 100 µM
TGI [7]: > 100 µM
TGI [8]: > 100 µM
TGI [9]: > 100 µM

COc1cccc2c(SCC(=O)Nc3ccccc3-c3ccccc3NC(=O)CSc3c4ccccc4nc4c(OC)cccc34)c3ccccc3nc12
TGI [1]: > 100 µM
TGI [3]: > 100 µM
TGI [4]: > 100 µM
TGI [6]: > 100 µM
TGI [7]: > 100 µM
TGI [8]: > 100 µM
TGI [9]: > 100 µM

CCCS(=O)c1nc(COC(=O)NC)c(COC(=O)NC)n1C (stereo unspecified)
TGI [1]: > 100 µM
TGI [2]: > 100 µM
TGI [3]: > 100 µM
TGI [4]: > 100 µM
TGI [5]: > 100 µM
TGI [6]: > 100 µM
TGI [7]: > 100 µM
TGI [8]: > 100 µM
TGI [9]: > 100 µM

O=C1C(Cl)=C(Cl)C(=O)N1c1cccc(C(F)(F)F)c1
TGI [1]: > 100 µM
TGI [2]: > 100 µM
TGI [3]: > 100 µM
TGI [4]: > 100 µM
TGI [5]: > 100 µM
TGI [6]: > 100 µM
TGI [7]: > 100 µM
TGI [8]: > 100 µM
TGI [9]: > 100 µM

COc1cc([C@@H]2OC(=O)C3C2C(=O)O[C@H]3c2ccc(O)c(OC)c2)ccc1O (stereo partly specified)
TGI [1]: > 100 µM
TGI [2]: > 100 µM
TGI [3]: > 100 µM
TGI [4]: > 100 µM
TGI [5]: > 100 µM
TGI [6]: > 100 µM
TGI [7]: > 100 µM
TGI [8]: > 100 µM
TGI [9]: > 100 µM

CCn1cc(C(=O)N/N=C/c2cccs2)c(=O)c2cc(F)c(N3CCNC(C)C3)c(F)c21 (stereo unspecified)
GI50 [10]: 14.1 µM
TGI [10]: 35.9 µM
GI50 [1]: 1.8 µM
TGI [1]: 3.35 µM
GI50 [2]: 1.8 µM
TGI [2]: 3.43 µM
GI50 [3]: 1.47 µM
TGI [3]: 2.82 µM
GI50 [4]: 1.61 µM
TGI [4]: 2.96 µM
GI50 [5]: 1.79 µM
TGI [5]: 3.38 µM
GI50 [6]: 1.67 µM
TGI [6]: 3.06 µM
GI50 [7]: 1.67 µM
TGI [7]: 3.12 µM
GI50 [9]: 1.78 µM
TGI [9]: 3.19 µM

CC(=O)[CH-]C(=O)c1ccccc1.CC(=O)[CH-]C(=O)c1ccccc1.CC[C@H](/C=C/C(C)[C@H]1CCC2[C@@H]3CC=C4C[C@@H]([O-])CC[C@]4(C)C3CC[C@@]21C)C(C)C.CC[C@H](/C=C/C(C)[C@H]1CCC2[C@@H]3CC=C4C[C@@H]([O-])CC[C@]4(C)C3CC[C@@]21C)C(C)C.Cl.[Ti+4] (stereo partly specified)
GI50 [1]: > 25 µM
TGI [1]: > 25 µM
GI50 [2]: > 25 µM
TGI [2]: > 25 µM
GI50 [3]: > 25 µM
TGI [3]: > 25 µM
GI50 [4]: > 25 µM
TGI [4]: > 25 µM
GI50 [5]: > 25 µM
TGI [5]: > 25 µM
GI50 [6]: > 25 µM
TGI [6]: > 25 µM
GI50 [7]: > 25 µM
TGI [7]: > 25 µM
GI50 [8]: > 25 µM
TGI [8]: > 25 µM
GI50 [9]: > 25 µM
TGI [9]: > 25 µM

CN(C)N=Nc1cccc(C(N)=O)c1
TGI [1]: > 100 µM
TGI [3]: > 100 µM
TGI [5]: > 100 µM
TGI [6]: > 100 µM
TGI [7]: > 100 µM
TGI [8]: > 100 µM
TGI [9]: > 100 µM

COc1cc2c3c(n([C@@H]4CCOC4)c(=O)c2cc1OC)-c1cc2c(cc1C3=O)OCO2
GI50 [10]: > 100 µM
TGI [10]: > 100 µM
GI50 [7]: 0.0141 µM
TGI [7]: > 100 µM
GI50 [8]: 0.0166 µM
TGI [8]: > 100 µM

O=C1NC2C3CC(OCc4ccccc4)(OCc4ccccc4)C2OC3O1 (stereo unspecified)
TGI [1]: > 50 µM
TGI [2]: > 50 µM
TGI [3]: > 50 µM
TGI [4]: > 50 µM
TGI [5]: > 50 µM
TGI [7]: > 50 µM
TGI [8]: > 50 µM
TGI [9]: > 50 µM

Nn1c(-c2cccc(Cl)c2)nc2ccccc2c1=O
TGI [1]: > 100 µM
TGI [2]: > 100 µM
TGI [3]: > 100 µM
TGI [4]: > 100 µM
TGI [5]: > 100 µM
TGI [6]: > 100 µM
TGI [7]: > 100 µM
TGI [8]: > 100 µM
TGI [9]: > 100 µM

O=C(O)/C(Cl)=C(Cl)/C=N/NC(=O)c1cc2ccccc2cc1O
TGI [1]: > 100 µM
TGI [2]: 65.6 µM
TGI [3]: > 100 µM
TGI [4]: 14.6 µM
TGI [5]: > 100 µM
TGI [6]: > 100 µM
TGI [7]: > 100 µM
TGI [8]: > 100 µM
TGI [9]: 24.6 µM

CC(C)c1[nH]nc2c(NCc3ccc(-c4ccccn4)cc3)nc(SCCN)nc12
GI50 [10]: 0.0151 µM
GI50 [1]: 0.0189 µM and 0.0162 µM
TGI [1]: 10.1 µM
GI50 [2]: 0.0414 µM and 0.0235 µM
TGI [2]: 0.0875 µM
GI50 [3]: 0.672 µM and 0.683 µM
TGI [3]: 10.9 µM
GI50 [4]: 0.0191 µM
TGI [4]: 0.0486 µM
GI50 [5]: 0.0433 µM and 0.0276 µM
TGI [5]: 11.4 µM
GI50 [6]: 0.028 µM and 0.0205 µM
TGI [6]: 11.5 µM
GI50 [7]: 0.00503 µM
TGI [7]: 10.1 µM
GI50 [8]: 0.0198 µM
TGI [8]: 10.2 µM

COC(=O)c1ccc(C(=O)OC)c2nc3cc(Cl)ccc3nc12
TGI [1]: > 100 µM
TGI [2]: > 100 µM
TGI [3]: > 100 µM
TGI [4]: > 100 µM
TGI [5]: > 100 µM
TGI [6]: > 100 µM
TGI [7]: > 100 µM
TGI [8]: > 100 µM
TGI [9]: > 100 µM

Cc1ccc(C2[C@H]3C(=O)N(c4ccc(Cc5ccc(N6C(=O)[C@@H]7ON(c8ccccc8)C(c8ccc(C)cc8)[C@@H]7C6=O)cc5)cc4)C(=O)[C@H]3ON2c2ccccc2)cc1 (stereo partly specified)
TGI [1]: > 100 µM
TGI [2]: > 100 µM
TGI [3]: > 100 µM
TGI [4]: > 100 µM
TGI [5]: > 100 µM
TGI [6]: > 100 µM
TGI [7]: > 100 µM
TGI [8]: > 100 µM
TGI [9]: > 100 µM

CC(C)N1C(C)[C@@H](c2ccccc2)O[P@@]1(=O)CC1=CCCCC1 (stereo partly specified)
TGI [1]: > 100 µM
TGI [2]: > 100 µM
TGI [3]: > 100 µM
TGI [4]: > 100 µM
TGI [5]: > 100 µM
TGI [6]: > 100 µM
TGI [7]: > 100 µM
TGI [8]: > 100 µM
TGI [9]: > 100 µM

O=C1CC(Cc2n[nH]c3c2CCCC3)CC(=O)N1
TGI [1]: > 100 µM
TGI [2]: > 100 µM
TGI [3]: > 100 µM
TGI [4]: > 100 µM
TGI [5]: > 100 µM
TGI [6]: > 100 µM
TGI [7]: > 100 µM
TGI [8]: > 100 µM
TGI [9]: > 100 µM
